Measured values published in patent US20140328930A1, “Pharmaceutical Compositions” (Alpharma Pharmaceuticals, LLC, priority 2007, published 2014).
Where a name gives a salt, the structure may show the parent alone.

How the values were obtained:
[1] = single dose 2.4 mg naltrexone, fasted
clinical = conditions: human, in vivo, 2.4 mg
[2] = cited from earlier work

O=C1CC[C@@]2(O)[C@H]3Cc4ccc(O)c5c4[C@@]2(CCN3CC2CC2)[C@H]1O5 [Naltrexone HCl Solution]
Naltrexone Tlast, Mean [1]: 20.00 h | Naltrexone λz, Mean [1]: 0.2013 h⁻¹ | Tmax (clinical): 1.13 h | concentration at 0 h (clinical): 0 ng/mL | concentration at 0.5 h (clinical): 0.455 ng/mL | concentration at 1 h (clinical): 0.629 ng/mL | concentration at 2 h (clinical): 0.465 ng/mL | concentration at 3 h (clinical): 0.286 ng/mL | concentration at 4 h (clinical): 0.182 ng/mL | concentration at 5 h (clinical): 0.133 ng/mL | concentration at 6 h (clinical): 0.0957 ng/mL | concentration at 8 h (clinical): 0.0518 ng/mL | concentration at 10 h (clinical): 0.0287 ng/mL | concentration at 12 h (clinical): 0.0205 ng/mL | concentration at 16 h (clinical): 0.00996 ng/mL | concentration at 24 h (clinical): 0.00316 ng/mL | concentration at 36 h (clinical): 0.000607 ng/mL | concentration at 48 h (clinical): 0 ng/mL | concentration at 60 h (clinical): 0 ng/mL | concentration at 72 h (clinical): 0 ng/mL | concentration at 84 h (clinical): 0 ng/mL | concentration at 96 h (clinical): 0 ng/mL | concentration at 120 h (clinical): 0 ng/mL | AUC(0-t) (clinical; Naltrexone AUC0-t, Mean, single dose 2.4 mg naltrexone, fasted): 2.2 ng·h/mL | AUC(0-inf) (clinical; Naltrexone AUCinf, Mean, single dose 2.4 mg naltrexone, fasted): 2.24 ng·h/mL | Cmax (clinical; Naltrexone Cmax, Mean, single dose 2.4 mg naltrexone, fasted): 0.689 ng/mL | AUC(0-inf) (clinical; Naltrexone ln(AUCinf), Geometric Mean, Least Squares Mean of log-transformed values): 1.99 ng·h/mL | AUC(0-t) (clinical; Naltrexone ln(AUClast), Geometric Mean, Least Squares Mean of log-transformed values): 1.95 ng·h/mL | Cmax (clinical; Naltrexone ln(Cmax), Geometric Mean, Least Squares Mean of log-transformed values): 0.58 ng/mL

O=C1CC[C@@]2(O)[C@H]3Cc4ccc(O)c5c4[C@@]2(CCN3CC2CC2)[C@H]1O5 [naltrexone]
Protein binding ([2]; in vivo): approximately 21% | Oral bioavailability ([2]; oral): 5-40%
